Source: ChEMBL document CHEMBL5728589, “Inhibitors of RIP1 kinase and methods of use thereof” (2021)
Values joined by “and” are separate entries in the source; they are usually repeats but may differ in a detail not shown here. Equal entries are not always repeated.

Target: T1, Receptor-interacting serine/threonine-protein kinase 1 (Homo sapiens, UniProt Q13546)
T1 sequence (Q13546 whole entry): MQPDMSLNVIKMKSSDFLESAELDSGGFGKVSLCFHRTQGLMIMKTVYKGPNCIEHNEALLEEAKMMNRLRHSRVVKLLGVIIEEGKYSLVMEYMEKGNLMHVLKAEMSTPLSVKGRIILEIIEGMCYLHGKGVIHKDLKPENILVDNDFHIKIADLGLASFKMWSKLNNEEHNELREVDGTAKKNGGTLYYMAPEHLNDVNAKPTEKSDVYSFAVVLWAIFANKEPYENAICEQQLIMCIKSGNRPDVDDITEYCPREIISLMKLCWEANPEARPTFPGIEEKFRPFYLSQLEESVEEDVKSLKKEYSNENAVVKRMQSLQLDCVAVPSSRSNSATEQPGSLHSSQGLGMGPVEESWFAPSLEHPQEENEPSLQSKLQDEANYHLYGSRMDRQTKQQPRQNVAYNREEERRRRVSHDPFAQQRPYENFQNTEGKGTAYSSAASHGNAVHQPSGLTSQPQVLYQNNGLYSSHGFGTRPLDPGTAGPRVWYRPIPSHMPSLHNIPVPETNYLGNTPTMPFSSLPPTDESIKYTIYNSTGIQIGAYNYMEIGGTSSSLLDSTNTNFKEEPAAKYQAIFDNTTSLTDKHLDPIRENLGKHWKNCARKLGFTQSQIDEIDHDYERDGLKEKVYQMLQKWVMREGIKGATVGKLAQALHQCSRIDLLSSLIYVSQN
Experiment: Enzyme Assay: The ability of the receptor interacting protein kinase (RIPK1) to catalyze the hydrolysis of adenosine-5′-triphosphate (ATP) is monitored using the Transcreener ADP (adenosine-5′-diphosphate) assay (BellBrook Labs).

Ki: 21 nM and 14 nM
SMILES: CCC(F)(F)[C@H]1CCc2nc(C(=O)N[C@H]3CCc4cc(F)cc(F)c4NC3=O)nn21
